Source: PubChem BioAssay AID1963866 (Molecular Pharmacology Branch, DTP, NCI, 2024)

System: PDC KRAS tumor spheroids with HUVEC/MSC, viability
Experiment: Anticancer human tumor 349418-098-R-PDC patient-derived lung adenocarcinoma cell line growth inhibition [KRAS2]
Details: for IC50: curve of first compound; for viability, T/C: stronger effect = lower value
Procedure, shortened: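 KRAS-mutant tumor cells were grown as spheroids with HUVEC endothelial cells and human MSCs as stroma. Targeted agents were tested alone and with KRAS pathway inhibitors. Doses started at or near clinical Cmax, or 10 microM, descending half-log.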

[1] = second compound 0.0316 µM, first compound 0.000316 µM
[2] = second compound 0.0316 µM, first compound 0.001 µM
[3] = second compound 0.0316 µM, first compound 0.00316 µM
[4] = second compound 0.0316 µM, first compound 0.01 µM
[5] = second compound 0.0316 µM, first compound 0.0316 µM
[6] = second compound 0.1 µM, first compound 0.000316 µM
[7] = second compound 0.1 µM, first compound 0.001 µM
[8] = second compound 0.1 µM, first compound 0.00316 µM
[9] = second compound 0.1 µM, first compound 0.01 µM
[10] = second compound 0.1 µM, first compound 0.0316 µM
[11] = second compound 0.316 µM, first compound 0.000316 µM
[12] = second compound 0.316 µM, first compound 0.001 µM
[13] = second compound 0.316 µM, first compound 0.00316 µM
[14] = second compound 0.316 µM, first compound 0.01 µM
[15] = second compound 0.316 µM, first compound 0.0316 µM
[16] = second compound 1 µM, first compound 0.000316 µM
[17] = second compound 1 µM, first compound 0.001 µM
[18] = second compound 1 µM, first compound 0.00316 µM
[19] = second compound 1 µM, first compound 0.01 µM
[20] = second compound 1 µM, first compound 0.0316 µM
[21] = second compound 3.16 µM, first compound 0.000316 µM
[22] = second compound 3.16 µM, first compound 0.001 µM
[23] = second compound 3.16 µM, first compound 0.00316 µM
[24] = second compound 3.16 µM, first compound 0.01 µM
[25] = second compound 3.16 µM, first compound 0.0316 µM
[26] = second compound 0.0316 µM, first compound 0.1 µM
[27] = second compound 0.1 µM, first compound 0.1 µM
[28] = second compound 0.316 µM, first compound 0.1 µM
[29] = second compound 1 µM, first compound 0.1 µM
[30] = second compound 3.16 µM, first compound 0.1 µM
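Note: spheroids exposed to compounds for seven days before readout.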

For `CC(=O)Nc1cccc(-n2c(=O)n(C3CC3)c(=O)c3c(Nc4ccc(I)cc4F)n(C)c(=O)c(C)c32)c1` + C=CC(=O)N1CCN(c2nc(OCC3CCCN3C)nc3c2CCN(c2cccc4cccc(C)c24)C3)CC1CC#N, the IC50 (second compound 0.0316 µM) was < 0.1 nM, the IC50 (second compound 0.1 µM) was < 0.1 nM and the IC50 (second compound 0.316 µM) was < 0.1 nM. The IC50 (second compound 1 µM) was < 0.1 nM, the IC50 (second compound 3.16 µM) was < 0.1 nM and the viability, T/C (second compound 0.0316 µM, first compound 0.0001 µM) was 41.1%. It also gave a viability, T/C [1] of 20.2%, a viability, T/C [2] of 14.8% and a viability, T/C [3] of 12.2%. The viability, T/C [4] was 8.59%, the viability, T/C [5] was 6.57% and the viability, T/C (second compound 0.1 µM, first compound 0.0001 µM) was 34.7%. For the same compound, the viability, T/C [6] was 20.9%, the viability, T/C [7] was 16.1% and the viability, T/C [8] was 10.9%. It also gave a viability, T/C [9] of 9.4%, a viability, T/C [10] of 6.86% and a viability, T/C (second compound 0.316 µM, first compound 0.0001 µM) of 35.8%. For the same compound, the viability, T/C [11] was 21.8%, the viability, T/C [12] was 16.8% and the viability, T/C [13] was 12.6%. It also gave a viability, T/C [14] of 8.68%, a viability, T/C [15] of 6.94% and a viability, T/C (second compound 1 µM, first compound 0.0001 µM) of 30.4%. It also gave a viability, T/C [16] of 23.3%, a viability, T/C [17] of 13.3% and a viability, T/C [18] of 9.39%. The viability, T/C [19] was 7.58%, the viability, T/C [20] was 6.58% and the viability, T/C (second compound 3.16 µM, first compound 0.0001 µM) was 0.51%. The viability, T/C [21] was 0.21%, the viability, T/C [22] was 0.19% and the viability, T/C [23] was 0.46%. The viability, T/C [24] was 0.21% and the viability, T/C [25] was 0.34%.

`CC(C)n1nc(-c2ccc3oc(N)nc3c2)c2c(N)ncnc21` + C=CC(=O)N1CCN(c2nc(OCC3CCCN3C)nc3c2CCN(c2cccc4cccc(C)c24)C3)CC1CC#N was tested, and the IC50 (second compound 0.0316 µM) was 1.04 nM, the IC50 (second compound 0.1 µM) was 0.76 nM and the IC50 (second compound 0.316 µM) was 0.891 nM. For the same compound, the IC50 (second compound 1 µM) was 0.673 nM, the IC50 (second compound 3.16 µM) was < 0.316 nM and the viability, T/C [1] was 91.5%. It also gave a viability, T/C [2] of 51.2%, a viability, T/C [3] of 14.9% and a viability, T/C [4] of 9.06%. It also gave a viability, T/C [5] of 8.26%, a viability, T/C [26] of 8.57% and a viability, T/C [6] of 95.8%. For the same compound, the viability, T/C [7] was 35.6%, the viability, T/C [8] was 13.9% and the viability, T/C [9] was 8.16%. For the same compound, the viability, T/C [10] was 7.73%, the viability, T/C [27] was 7.41% and the viability, T/C [11] was 92.3%. The viability, T/C [12] was 45.2%, the viability, T/C [13] was 18% and the viability, T/C [14] was 9.14%. It also gave a viability, T/C [15] of 7.31%, a viability, T/C [28] of 7.9% and a viability, T/C [16] of 71.8%. The viability, T/C [17] was 38.3%, the viability, T/C [18] was 17.3% and the viability, T/C [19] was 7.45%. It also gave a viability, T/C [20] of 6.31%, a viability, T/C [29] of 6.74% and a viability, T/C [21] of 1%. For the same compound, the viability, T/C [22] was 0.25%, the viability, T/C [23] was 1.1% and the viability, T/C [24] was 0.13%. For the same compound, the viability, T/C [25] was 0.22% and the viability, T/C [30] was 0.17%.

In the case of `CC1(C)CCC(CN2CCN(c3ccc(C(=O)NS(=O)(=O)c4ccc(NCC5CCOCC5)c([N+](=O)[O-])c4)c(Oc4cnc5[nH]ccc5c4)c3)CC2)=C(c2ccc(Cl)cc2)C1` + C=CC(=O)N1CCN(c2nc(OCC3CCCN3C)nc3c2CCN(c2cccc4cccc(C)c24)C3)CC1CC#N, the IC50 (second compound 0.0316 µM) is reported as 1680 nM, the IC50 (second compound 0.1 µM) is reported as 1340 nM and the IC50 (second compound 0.316 µM) is reported as 1510 nM. For the same compound, the IC50 (second compound 1 µM) was 1180 nM, the IC50 (second compound 3.16 µM) was < 31.6 nM and the viability, T/C [5] was 97.5%. The viability, T/C [26] was 100%, the viability, T/C (second compound 0.0316 µM, first compound 0.316 µM) was 89.4% and the viability, T/C (second compound 0.0316 µM, first compound 1 µM) was 80%. The viability, T/C (second compound 0.0316 µM, first compound 3.16 µM) was 13.8%, the viability, T/C (second compound 0.0316 µM, first compound 10 µM) was 4.29% and the viability, T/C [10] was 96.2%. The viability, T/C [27] was 94.8%, the viability, T/C (second compound 0.1 µM, first compound 0.316 µM) was 76.5% and the viability, T/C (second compound 0.1 µM, first compound 1 µM) was 66.2%. For the same compound, the viability, T/C (second compound 0.1 µM, first compound 3.16 µM) was 13.6%, the viability, T/C (second compound 0.1 µM, first compound 10 µM) was 4.13% and the viability, T/C [15] was 92.6%. For the same compound, the viability, T/C [28] was 87.5%, the viability, T/C (second compound 0.316 µM, first compound 0.316 µM) was 77.1% and the viability, T/C (second compound 0.316 µM, first compound 1 µM) was 72.1%. For the same compound, the viability, T/C (second compound 0.316 µM, first compound 3.16 µM) was 10.9%, the viability, T/C (second compound 0.316 µM, first compound 10 µM) was 3.73% and the viability, T/C [20] was 76.8%. For the same compound, the viability, T/C [29] was 75%, the viability, T/C (second compound 1 µM, first compound 0.316 µM) was 68.2% and the viability, T/C (second compound 1 µM, first compound 1 µM) was 57.7%. It also gave a viability, T/C (second compound 1 µM, first compound 3.16 µM) of 4.26%, a viability, T/C (second compound 1 µM, first compound 10 µM) of 1.75% and a viability, T/C [25] of 0.15%. For the same compound, the viability, T/C [30] was 0.15%, the viability, T/C (second compound 3.16 µM, first compound 0.316 µM) was 0.14% and the viability, T/C (second compound 3.16 µM, first compound 1 µM) was 0.2%. It also gave a viability, T/C (second compound 3.16 µM, first compound 3.16 µM) of 0.09% and a viability, T/C (second compound 3.16 µM, first compound 10 µM) of 0.11%.
